Assay results reported in ChEMBL document CHEMBL5665443, “Enzyme Inhibitor Single Concentration assay results for EUbOPEN Chemogenomics Library” (2024).

Tests used:
[1] = molecular target: Endonuclease 8-like 1 (Homo sapiens) (UniProt Q96FI4); conditions: Hit No;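 note: fluorescence at 594 nm from quenched duplex DNA oligonucleotides released by NEIL1 cleavage and strand separation, reported as reduction of this enzyme activity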
Description: Inhibition of NEIL1 by quantifying inhibition of NEIL1-mediated cleavage and dissociation of quenched duplex DNA oligonucleotides, measured as fluorescence at 594 nm.

[2] = molecular target: T1, Endonuclease 8-like 2 (Homo sapiens) (UniProt Q969S2); conditions: Hit No;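 note: fluorescence at 594 nm reports NEIL2 cutting and release of a quenched double-stranded DNA oligo substrate, reduced signal read as inhibition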
T1 sequence (whole entry): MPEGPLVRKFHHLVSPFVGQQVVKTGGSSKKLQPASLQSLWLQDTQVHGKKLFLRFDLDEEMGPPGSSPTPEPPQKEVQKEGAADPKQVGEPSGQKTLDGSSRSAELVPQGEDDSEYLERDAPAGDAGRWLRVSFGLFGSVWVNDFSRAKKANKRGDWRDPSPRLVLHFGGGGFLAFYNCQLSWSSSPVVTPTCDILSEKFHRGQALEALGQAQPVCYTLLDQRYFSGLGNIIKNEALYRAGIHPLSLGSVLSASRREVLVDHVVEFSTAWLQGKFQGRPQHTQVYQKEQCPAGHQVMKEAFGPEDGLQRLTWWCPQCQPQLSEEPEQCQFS
Description: Inhibition of NEIL2 by quantifying inhibition of NEIL2-mediated cleavage and dissociation of quenched duplex DNA oligonucleotides, measured as fluorescence at 594 nm.

[3] = molecular target: T2, Endonuclease III-like protein 1 (Homo sapiens) (UniProt P78549); conditions: Hit No;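 note: enzyme assay tracking NTHL1 cutting and release of a quenched double-stranded DNA oligo substrate, read as fluorescence at 594 nm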
T2 sequence (whole entry): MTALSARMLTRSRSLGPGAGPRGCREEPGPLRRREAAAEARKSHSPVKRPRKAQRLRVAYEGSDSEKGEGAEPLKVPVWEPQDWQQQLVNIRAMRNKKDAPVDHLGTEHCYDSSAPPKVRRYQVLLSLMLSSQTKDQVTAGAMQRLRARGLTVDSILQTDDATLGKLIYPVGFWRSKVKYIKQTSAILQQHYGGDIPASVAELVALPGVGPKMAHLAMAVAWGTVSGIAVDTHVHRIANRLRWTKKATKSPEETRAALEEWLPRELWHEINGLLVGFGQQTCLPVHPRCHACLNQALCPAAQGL
Description: Inhibition of NTHL1 by quantifying inhibition of NTHL1-mediated cleavage and dissociation of quenched duplex DNA oligonucleotides, measured as fluorescence at 594 nm.

[4] = molecular target: N-glycosylase/DNA lyase (Homo sapiens) (UniProt O15527); conditions: Compound Concentration 10.0 uM, Hit No;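 note: OGG1 cleavage of a quenched duplex DNA oligonucleotide, coupled to APE1 for strand incision, read as fluorescence at 594 nm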
N-glycosylase/DNA lyase (Homo sapiens), sequence (O15527 whole entry): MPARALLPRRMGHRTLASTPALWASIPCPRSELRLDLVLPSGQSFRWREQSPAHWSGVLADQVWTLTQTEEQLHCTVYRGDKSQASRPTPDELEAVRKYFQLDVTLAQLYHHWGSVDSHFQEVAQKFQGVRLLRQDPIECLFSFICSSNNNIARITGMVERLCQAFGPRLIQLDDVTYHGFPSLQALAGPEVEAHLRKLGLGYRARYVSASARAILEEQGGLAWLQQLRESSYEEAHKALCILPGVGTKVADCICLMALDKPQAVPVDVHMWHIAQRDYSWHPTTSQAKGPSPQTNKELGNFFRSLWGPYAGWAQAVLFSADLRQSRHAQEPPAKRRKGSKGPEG
Description: Inhibition of OGG1 by quantifying inhibition of OGG1-mediated cleavage and dissociation of quenched duplex DNA oligonucleotides, measured as fluorescence at 594 nm. To generate a functional strand incision and increase turn-over this assay is coupled to APE1.

[5] = molecular target: Uracil-DNA glycosylase (Homo sapiens) (UniProt P13051); conditions: Hit No;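 note: UNG excision on a quenched double-stranded DNA oligo probe, with APE1 added for strand incision and turnover, read as fluorescence at 594 nm as strands separate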
Uracil-DNA glycosylase (Homo sapiens), sequence (P13051 whole entry): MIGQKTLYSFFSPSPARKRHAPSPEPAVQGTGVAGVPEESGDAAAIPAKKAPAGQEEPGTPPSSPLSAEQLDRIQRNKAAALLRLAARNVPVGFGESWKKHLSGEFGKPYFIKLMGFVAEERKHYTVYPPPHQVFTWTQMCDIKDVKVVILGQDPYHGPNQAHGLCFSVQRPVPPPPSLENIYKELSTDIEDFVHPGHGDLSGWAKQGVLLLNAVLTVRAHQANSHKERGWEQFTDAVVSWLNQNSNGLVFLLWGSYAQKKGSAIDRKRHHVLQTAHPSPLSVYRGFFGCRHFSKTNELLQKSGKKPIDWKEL
Description: Inhibition of UNG by quantifying inhibition of UNG-mediated cleavage and dissociation of quenched duplex DNA oligonucleotides, measured as fluorescence at 594 nm. To generate a functional strand incision and increase turn-over this assay is coupled to APE1.

[6] = molecular target: T3, Single-strand selective monofunctional uracil DNA glycosylase (Homo sapiens) (UniProt Q53HV7); conditions: Hit No;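 note: enzymatic SMUG1 assay coupled with APE1, reading fluorescence at 594 nm released when a quenched double-stranded DNA oligonucleotide substrate is cleaved and separated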
T3 sequence (whole entry): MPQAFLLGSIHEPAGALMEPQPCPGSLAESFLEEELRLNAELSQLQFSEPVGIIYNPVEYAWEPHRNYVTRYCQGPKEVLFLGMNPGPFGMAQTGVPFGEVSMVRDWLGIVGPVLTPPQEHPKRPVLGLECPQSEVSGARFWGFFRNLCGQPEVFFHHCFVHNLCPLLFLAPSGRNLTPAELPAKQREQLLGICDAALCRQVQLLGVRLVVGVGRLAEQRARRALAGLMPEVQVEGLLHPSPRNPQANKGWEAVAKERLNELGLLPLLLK
Description: Inhibition of SMUG1 by quantifying inhibition of SMUG1-mediated cleavage and dissociation of quenched duplex DNA oligonucleotides, measured as fluorescence at 594 nm. To generate a functional strand incision and increase turn-over this assay is coupled to APE1.

[7] = molecular target: G/T mismatch-specific thymine DNA glycosylase (Homo sapiens) (UniProt Q13569); conditions: Hit No;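 note: human TDG cleavage of quenched duplex DNA oligonucleotides coupled to APE1, strand release read as fluorescence at 594 nm, inhibition of TDG activity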
G/T mismatch-specific thymine DNA glycosylase (Homo sapiens), sequence (Q13569 whole entry): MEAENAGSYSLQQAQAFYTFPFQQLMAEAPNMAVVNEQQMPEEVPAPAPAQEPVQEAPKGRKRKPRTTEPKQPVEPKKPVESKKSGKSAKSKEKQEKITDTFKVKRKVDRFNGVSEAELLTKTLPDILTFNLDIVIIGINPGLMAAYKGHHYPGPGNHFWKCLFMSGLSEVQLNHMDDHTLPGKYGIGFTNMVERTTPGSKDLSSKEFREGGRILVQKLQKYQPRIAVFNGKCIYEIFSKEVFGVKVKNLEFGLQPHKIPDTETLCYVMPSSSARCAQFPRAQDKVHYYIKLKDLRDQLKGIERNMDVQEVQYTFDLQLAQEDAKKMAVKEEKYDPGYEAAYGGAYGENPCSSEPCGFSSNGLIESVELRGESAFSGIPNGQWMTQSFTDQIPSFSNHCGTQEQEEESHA
Description: Inhibition of TDG by quantifying inhibition of TDG-mediated cleavage and dissociation of quenched duplex DNA oligonucleotides, measured as fluorescence at 594 nm. To generate a functional strand incision and increase turn-over this assay is coupled to APE1.

Endonuclease 8-like 1 (Homo sapiens), sequence (Q96FI4 whole entry): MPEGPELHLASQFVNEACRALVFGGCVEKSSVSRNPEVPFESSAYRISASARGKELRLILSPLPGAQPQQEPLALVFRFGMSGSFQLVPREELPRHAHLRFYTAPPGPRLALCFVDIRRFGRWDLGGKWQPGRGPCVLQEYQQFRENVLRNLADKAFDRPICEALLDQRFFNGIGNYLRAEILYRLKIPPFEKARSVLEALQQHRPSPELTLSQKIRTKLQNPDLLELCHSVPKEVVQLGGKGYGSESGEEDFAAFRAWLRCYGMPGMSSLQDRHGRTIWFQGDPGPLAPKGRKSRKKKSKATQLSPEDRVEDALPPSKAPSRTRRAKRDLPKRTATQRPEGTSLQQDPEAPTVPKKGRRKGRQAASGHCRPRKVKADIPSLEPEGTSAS

Row | Compound | inhibition ([1]; Compound Concentration 10.0 uM) [%] | inhibition ([2]; Compound Concentration 10.0 uM) [%] | inhibition ([3]; Compound Concentration 10.0 uM) [%] | inhibition [4] [%] | inhibition ([5]; Compound Concentration 10.0 uM) [%] | inhibition ([6]; Compound Concentration 10.0 uM) [%] | inhibition ([1]; Compound Concentration 1.0 uM) [%] | inhibition ([2]; Compound Concentration 1.0 uM) [%] | inhibition ([3]; Compound Concentration 1.0 uM) [%] | inhibition ([6]; Compound Concentration 1.0 uM) [%] | inhibition ([7]; Compound Concentration 1.0 uM) [%] | inhibition ([5]; Compound Concentration 1.0 uM) [%] | inhibition ([7]; Compound Concentration 10.0 uM) [%]
1 | CCCC(=O)C1CCN(c2ncnc3c2CN(C(=O)c2ccc(-c4ccccc4)cc2)CC3)CC1 | 0.75 | -0.605 | 12.1 | -4.93 | -3.39 | – | – | – | – | – | – | – | –
2 | COc1ccc(S(=O)(=O)N2C(=O)[C@@](c3ccccc3OC)(N3C[C@H](O)C[C@H]3C(=O)N(C)C)c3cc(Cl)ccc32)c(OC)c1 | 2.68 | -8.25 | -0.258 | – | 1.21 | – | – | – | – | – | – | – | –
3 | N=C(N)NCCC[C@H](NC(=O)C12CC3CC(CC(C3)C1)C2)C(=O)N[C@@H](Cc1ccccc1)C(N)=O | 4.9 | -4.94 | 13.8 | – | -7.87 | -6 | – | – | – | – | – | – | –
4 | CCN1CCN(c2ccc(Nc3cc(N(C)C(=O)Nc4c(Cl)c(OC)cc(OC)c4Cl)ncn3)cc2)CC1 | – | – | – | – | – | – | -0.787 | -7.84 | 1.48 | 20.5 | 47.5 | 1.97 | –
5 | c1ccc2oc(-c3csc(C4CCN(Cc5nc6ncccc6[nH]5)CC4)n3)cc2c1 | -4.83 | 1.3 | -1.29 | 2.49 | -7.49 | – | – | – | – | – | – | – | 76.8
6 | CC[N+](CC)(CC)CCOc1ccc(/C=C/c2ccccc2)cc1 | 3.86 | 0.669 | 0.568 | – | 1.13 | 8.74 | – | – | – | – | – | – | –
7 | Cc1c(-c2cc(-c3ccccc3Cl)no2)cnn1C1CCNCC1 | 5.79 | -0.35 | 12.9 | – | -3.3 | -1.2 | – | – | – | – | – | – | -8.91
8 | CCc1nn2c(C)cc(C)nc2c1Cc1ccc(-c2nnc(C3CCNCC3)o2)cc1 | 6.02 | 2.26 | -9.8 | -9.16 | – | – | – | – | – | – | – | – | 1.84
9 | CCCCCCCCCCCCC/C=C/[C@@H](O)[C@@H](N)COP(=O)(O)O | 4.69 | 6.5 | -7.6 | 2.2 | -6.96 | – | – | – | – | – | – | – | -7.17
10 | Cc1ccccc1N1CCN(S(=O)(=O)C[C@]23CC[C@H](C[C@@H]2NC(=O)[C@@H](N)CCS(C)(=O)=O)C3(C)C)CC1 | 10.9 | -8.47 | 20.2 | -1.3 | -9.38 | – | – | – | – | – | – | – | -7.58
11 | CC(F)(F)CN1CCOc2c(nn(-c3ccccc3Cl)c2-c2ccc(Cl)cc2)C1=O | -3.02 | 4.76 | 14.4 | 1.85 | -4.73 | – | – | – | – | – | – | – | -6.66
12 | CN1CCN(c2nc3cc(C(F)(F)F)ccc3n3cccc23)CC1 | -1.92 | 16.2 | 16.2 | -6.12 | 0.522 | – | – | – | – | – | – | – | –
13 | N#Cc1cc2c(OCC(O)CN3CCN(C(c4ccccc4)c4ccccc4)CC3)cccc2[nH]1 (racemic) | 7.06 | -1.98 | -4.67 | -4.64 | -9.6 | – | – | – | – | – | – | – | -7.45
14 | CCOc1ccc(-n2c([C@@H](C)N(Cc3cccnc3)C(=O)Cc3ccc(F)c(C(F)(F)F)c3)nc3ncccc3c2=O)cc1 | 6.83 | -4.17 | 5.52 | – | -5.43 | – | – | – | – | – | – | – | –
15 | CN(CCN1CCC(OC(=O)Nc2ccccc2-c2ccccc2)CC1)C(=O)c1ccc(CN2CCC(C(N)=O)CC2)cc1 | 3.95 | -7.72 | 15.8 | -7.57 | – | – | – | – | – | – | – | – | –
16 | CN(C(=O)c1ccccc1)c1cc(N(C)c2ccc3c(c2)CCc2ccc(C(=O)NCCN4CCOCC4)cc2C3=O)ccc1F | -3.21 | -1.45 | 3.6 | -2.17 | – | – | – | – | – | – | – | – | –
17 | CCOc1cc2ncc(C#N)c(Nc3ccc(OCc4cccc(F)c4)c(Cl)c3)c2cc1NC(=O)/C=C/CN(C)C | – | – | – | – | – | – | – | – | -5.49 | 11.5 | 25.8 | 3.4 | –
18 | COc1cc(C)c(Sc2cnc(NC(=O)c3ccc(CNC(C)C(C)(C)C)cc3)s2)cc1C(=O)N1CCN(C(C)=O)CC1 (stereo not drawn) | -0.787 | – | -3.4 | – | 4.76 | 19.5 | – | – | – | – | – | – | 37.6
19 | CCc1nn(CCCN2CCN(c3cccc(Cl)c3)CC2)c(=O)n1CCOc1ccccc1 | -3.02 | -4.48 | 7.79 | – | -5.52 | – | – | – | – | – | – | – | –
20 | O=C(Nc1c(-c2cccs2)nc2ccc(Cl)cn12)c1ccc(Cl)cc1 | 0.454 | 6.02 | 13.8 | -9.75 | -4.66 | – | – | – | – | – | – | – | –
21 | N#Cc1c(N)nc(SCC(N)=O)c(C#N)c1-c1ccc(OCC2CC2)cc1 | 5.43 | 6.25 | 13.7 | 6.64 | – | – | – | – | – | – | – | – | –
22 | CN1CCN(c2nc(N)c3ccccc3n2)CC1 | 6.68 | 16 | 17.1 | -6.52 | -6.76 | – | – | – | – | – | – | – | -3.58
23 | CC(C)CNc1nc(N2CCN(CC3CCCOC3)CC2)ncc1C(=O)NCc1ccccc1 (stereo not drawn) | 2.23 | -0.0955 | -1.08 | – | -1.17 | – | – | – | – | – | – | – | –
24 | CCCSc1nc(N[C@@H]2C[C@H]2c2ccc(F)c(F)c2)c2nnn([C@@H]3C[C@H](OCCO)[C@@H](O)[C@H]3O)c2n1 | -9.1 | – | 11.4 | -6.84 | -5.37 | – | – | – | – | – | – | – | -6.53
25 | CC(C)Oc1ccc(-c2nc(-c3cccc4c3CC[C@@H]4NCCO)no2)cc1C#N | -0.352 | 5.51 | 1.19 | – | – | – | – | – | – | – | – | – | -9.98
26 | CCCC(=O)C1(c2ccccc2)CCN(C(=O)[C@@H](Cc2ccc(OC)cc2)NC(=O)[C@@H](N)Cc2cncn2C)CC1 | 0.454 | -1.37 | -2.73 | -8.78 | -7.56 | – | – | – | – | – | – | – | –
27 | Cc1nc2ccc(Oc3ccc(F)cc3)cc2c(=O)n1C[C@H]1CCCN(C(C)C)C1 | 6.38 | – | -3.56 | – | -4.71 | -4.48 | – | – | – | – | – | – | -8.54
28 | CSCC[C@H](NC(=O)[C@H](Cc1ccc(O)cc1)NC(=O)[C@H](CCCCN)NC(=O)[C@@H](N)Cc1c[nH]c2ccccc12)C(=O)N[C@H](C(=O)N[C@H](CCSC)C(N)=O)C(C)C | 13.1 | -4.17 | 21.2 | – | -1.7 | – | – | – | – | – | – | – | –
